Reference: patent US20110152313A1 (MACQUARIE UNIVERSITY, priority 2008, published 2011)

Experiments:
Assay in all cases: kinase binding screen (kinase-tagged T7 phage, qPCR), % Ctrl
GAK = biological target: T1, GAK (Homo sapiens, UniProt O14976)
T1 sequence (O14976 1-1311): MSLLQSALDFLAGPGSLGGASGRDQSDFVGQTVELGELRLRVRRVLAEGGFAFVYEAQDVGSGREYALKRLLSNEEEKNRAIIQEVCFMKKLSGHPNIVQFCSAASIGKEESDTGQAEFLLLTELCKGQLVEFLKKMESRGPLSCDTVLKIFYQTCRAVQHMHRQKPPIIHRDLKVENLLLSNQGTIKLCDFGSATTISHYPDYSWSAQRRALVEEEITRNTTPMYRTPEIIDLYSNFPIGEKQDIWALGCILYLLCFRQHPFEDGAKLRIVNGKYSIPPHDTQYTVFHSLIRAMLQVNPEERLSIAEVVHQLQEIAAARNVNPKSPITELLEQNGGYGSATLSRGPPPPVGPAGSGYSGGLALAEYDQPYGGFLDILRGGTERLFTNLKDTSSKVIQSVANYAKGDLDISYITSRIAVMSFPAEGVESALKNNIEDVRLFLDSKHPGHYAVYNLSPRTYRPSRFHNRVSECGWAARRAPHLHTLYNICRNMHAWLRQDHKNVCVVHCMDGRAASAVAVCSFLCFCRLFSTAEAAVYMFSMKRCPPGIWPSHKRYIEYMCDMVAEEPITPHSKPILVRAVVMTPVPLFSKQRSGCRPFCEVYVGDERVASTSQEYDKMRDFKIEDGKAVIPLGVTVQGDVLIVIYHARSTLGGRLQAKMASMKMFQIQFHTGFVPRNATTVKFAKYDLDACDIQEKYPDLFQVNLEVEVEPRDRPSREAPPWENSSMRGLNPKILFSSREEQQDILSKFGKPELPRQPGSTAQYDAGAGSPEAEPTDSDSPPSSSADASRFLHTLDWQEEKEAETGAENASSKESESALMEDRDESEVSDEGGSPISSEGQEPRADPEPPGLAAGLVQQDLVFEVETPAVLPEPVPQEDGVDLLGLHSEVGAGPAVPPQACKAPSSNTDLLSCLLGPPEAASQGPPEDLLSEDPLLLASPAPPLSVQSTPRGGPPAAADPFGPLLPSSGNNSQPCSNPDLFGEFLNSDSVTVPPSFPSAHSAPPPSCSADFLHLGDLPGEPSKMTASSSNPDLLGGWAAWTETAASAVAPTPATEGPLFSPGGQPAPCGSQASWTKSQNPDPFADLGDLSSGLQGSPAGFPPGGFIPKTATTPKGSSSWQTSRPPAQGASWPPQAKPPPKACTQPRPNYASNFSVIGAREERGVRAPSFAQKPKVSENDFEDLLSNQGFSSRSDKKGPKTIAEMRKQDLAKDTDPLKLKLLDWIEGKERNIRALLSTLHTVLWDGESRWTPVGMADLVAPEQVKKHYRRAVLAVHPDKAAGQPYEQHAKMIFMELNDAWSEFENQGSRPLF
In short: (§1)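 Competition binding: kinase-tagged T7 phage (grown in BL21-derived E. coli, lysed at 32° C) incubated with immobilized ligand on biotin-blocked beads plus test compound; bound kinase in eluates quantified by qPCR. Compounds tested at a single set concentration, added from 40× DMSO stocks.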

MAP3K15 = biological target: T2, MAP3K15 (Homo sapiens, UniProt Q6ZN16)
T2 sequence (Q6ZN16 1-1313): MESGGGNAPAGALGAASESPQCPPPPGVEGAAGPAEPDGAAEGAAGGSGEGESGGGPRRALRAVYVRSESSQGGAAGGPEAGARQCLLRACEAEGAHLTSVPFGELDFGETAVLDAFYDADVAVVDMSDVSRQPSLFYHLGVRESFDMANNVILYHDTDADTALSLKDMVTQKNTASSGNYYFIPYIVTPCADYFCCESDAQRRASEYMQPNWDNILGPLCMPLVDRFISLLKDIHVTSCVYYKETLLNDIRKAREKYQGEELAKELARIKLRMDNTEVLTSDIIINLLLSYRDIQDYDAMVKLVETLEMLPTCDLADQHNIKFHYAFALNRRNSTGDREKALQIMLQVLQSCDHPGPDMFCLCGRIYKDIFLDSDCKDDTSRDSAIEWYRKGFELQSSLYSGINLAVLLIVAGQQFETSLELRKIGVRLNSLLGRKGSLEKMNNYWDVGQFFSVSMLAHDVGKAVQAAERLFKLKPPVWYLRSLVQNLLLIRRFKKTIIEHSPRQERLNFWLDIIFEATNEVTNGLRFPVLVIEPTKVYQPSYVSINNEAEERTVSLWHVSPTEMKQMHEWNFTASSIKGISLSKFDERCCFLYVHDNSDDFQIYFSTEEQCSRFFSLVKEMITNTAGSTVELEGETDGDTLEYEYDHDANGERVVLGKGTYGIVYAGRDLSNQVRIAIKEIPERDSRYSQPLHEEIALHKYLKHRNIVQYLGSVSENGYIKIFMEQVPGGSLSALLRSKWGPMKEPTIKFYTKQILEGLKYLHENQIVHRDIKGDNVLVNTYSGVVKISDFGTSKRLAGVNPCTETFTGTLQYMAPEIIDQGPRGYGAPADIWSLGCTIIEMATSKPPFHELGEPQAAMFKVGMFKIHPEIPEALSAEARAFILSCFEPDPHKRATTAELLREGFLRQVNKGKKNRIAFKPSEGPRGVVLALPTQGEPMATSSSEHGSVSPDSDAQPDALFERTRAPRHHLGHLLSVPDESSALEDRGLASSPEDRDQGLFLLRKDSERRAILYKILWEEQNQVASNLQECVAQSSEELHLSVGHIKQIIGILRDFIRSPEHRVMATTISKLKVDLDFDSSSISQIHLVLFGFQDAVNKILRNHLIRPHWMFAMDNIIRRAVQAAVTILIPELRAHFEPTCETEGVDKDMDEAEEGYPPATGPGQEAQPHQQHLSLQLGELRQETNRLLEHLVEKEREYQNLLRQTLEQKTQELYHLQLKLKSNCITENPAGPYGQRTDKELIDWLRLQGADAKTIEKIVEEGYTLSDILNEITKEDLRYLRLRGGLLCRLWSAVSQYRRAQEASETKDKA
In short: as §1

CDK7 = CDK7 (Homo sapiens, UniProt P50613)
In short: as §1

Sequence of CDK7 (P50613 whole entry): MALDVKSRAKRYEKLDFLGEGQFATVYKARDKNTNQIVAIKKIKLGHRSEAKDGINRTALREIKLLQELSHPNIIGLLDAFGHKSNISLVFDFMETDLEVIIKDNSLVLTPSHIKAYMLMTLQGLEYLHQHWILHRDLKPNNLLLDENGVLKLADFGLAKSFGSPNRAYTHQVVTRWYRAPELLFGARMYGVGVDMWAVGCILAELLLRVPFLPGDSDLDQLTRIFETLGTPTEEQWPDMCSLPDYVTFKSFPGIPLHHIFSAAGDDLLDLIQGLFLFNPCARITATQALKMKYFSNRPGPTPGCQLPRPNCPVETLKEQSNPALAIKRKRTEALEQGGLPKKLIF

remaining activity at 10 µM (GAK; 10 μM) | remaining activity at 10 µM (MAP3K15; 10 μM) | remaining activity at 10 µM (CDK7; 10 μM) | SMILES | remaining activity at 1 µM (GAK) | remaining activity at 1 µM (MAP3K15) | remaining activity at 1 µM (CDK7)
19% | 78% | 66% | Nc1nc2c(-c3cc(Br)c(Br)[nH]3)nccc2[nH]1 [Ageladine A, ageladine A, reference compound] | 45% | 100% | 79%
 |  |  | Nc1nc2c(-c3ccccn3)nccc2[nH]1 [drawing 35, 4-(pyrid-2-yl)-1H-imidazo[4,5-c]pyridin-2-amine] | 54% | 40% | 30%
 |  |  | Nc1nc2c(-c3cnc4ccccc4c3)nccc2[nH]1 [drawing 36, 4-(quinolin-3-yl)-1H-imidazo[4,5-c]pyridin-2-amine] | 91% | 94% | 100%
